# Patent US20220313670A1, “Methods Of Treating Fabry Disease In Patients Having Renal Impairment” (Amicus Therapeutics, Inc., priority 2019, published 2022)
# “And” between values parts separate entries of the source, which are not always exact repeats. Equal values may be shown once. Read-outs that look alike come from different tables or passages of the source.
# How the values were obtained:
# [1] = Highest recorded migalastat exposure in a Fabry patient after a single dose of 450 mg; type: in vivo, human; conditions: single dose of 450 mg
# From the text: FIGS. 2A-D show the mean simulation plots for each regimen.
# [2] = Phase 1 single-dose pharmacokinetics and safety study of migalastat HCl in non-Fabry subjects with renal impairment (Example 1, AT1001-015); type: in vivo, human; conditions: for AUC0-∞: individual subjects, in ng·h/mL; for concentration at 96 h: read-out: C96 h, Mean; for Comparison to Example 1 Moderate Impairment (migalastat concentration): non-Fabry subjects with moderate renal impairment, in ng/mL (unit assumed); for Comparison to Example 1 Severe Impairment (migalastat concentration): non-Fabry subjects with severe renal impairment, (coefficient of variation)
# Method: The eGFR estimated by the Cockcroft-Gault equation per the FDA Guidance for renal impairment studies.
# Volunteers were enrolled into two cohorts stratified for renal function calculated using the Cockcroft-Gault equation for creatinine clearance (CLcr). Subjects were assigned to groups based on an estimated CLcr at screening as calculated using the Cockcroft-Gault equation.
# Subjects were grouped according to degree of renal dysfunction: mild (CLcr ≥60 and <90 mL/min), moderate (CLcr ≥30 and <60 mL/min), or severe (CLcr ≥15 and <30 mL/min)
# [3] = FACETS (011) population PK from sparse blood sampling in Fabry patients; type: in vivo, human; conditions: for Comparison to FACETS PPK (migalastat concentration): Fabry patients of FACETS
# From the text: One or more of the dosing regimens described herein are particularly suitable for Fabry patients who have some degree of renal impairment. […] FACETS (011, NCT00925301) was a 24-month trial, including a 6-month double-blind, placebo-controlled period, in 67 enzyme replacement therapy (ERT)-naive patients. ATTRACT (012, NCT01218659) was an active-controlled, 18-month trial in 57 ERT-experienced patients with a 12-month open-label extension (OLE). Both the FACETS and ATTRACT studies included patients having an estimated glomerular filtration rate (eGFR) of ≥30 ml/min/1.73 m^2. Accordingly, both studies included Fabry patients with normal renal function as well as patients with mild and moderate renal impairment, but neither study included patients with severe renal impairment.
# Thus, two Fabry patients with renal impairment were evaluated. One patient (P1) had moderate renal impairment, while the other patient (P2) had severe renal impairment. […] The comparison with the results from the FACETS study allows for comparison of PK in the Fabry population with mostly normal, but some mild and a few moderately impaired Fabry patients. None had severe renal impairment because these patients were excluded from the study.
# [4] = Multiple dose simulations (2-compartment model, WinNonlin) on the renal impairment subjects of Example 1; set-up: species or system human; conditions: ratio to AUCPPK
# From the text: This example provides computer simulations of dosing the renal impairment subjects of Example 1. The key assumption was exposure characterized in non-Fabry subjects with renal impairment is the same as in Fabry patients with renal impairment. The software program was WinNonlin version 5.2 or higher. […] Steady state was assumed by 7th dose. […] QOD (every other day or 48 hrs), Q3D (every 3rd day or 72 hrs), Q4D (every 4th day or 96 hrs), and Q7D (every 7th day/once a week or 168 hrs). A 2-compartment model was used to estimate volume of distribution (Vd) and elimination rate constants from single dose data. These estimates were inputted into each molecular dose simulation regimen.
# [5] = Earlier single and multiple ascending dose plasma and urine pharmacokinetic studies in healthy volunteers and Fabry patients; conditions: human, in vivo
# [6] = AT1001-015, Mild (CLcr ≥60-<90 mL/min), N 8
# [7] = AT1001-015, Moderate (CLcr ≥30-<60 mL/min), N 8
# [8] = AT1001-015, Normal (CLcr ≥90 mL/min), N 8
# [9] = AT1001-015, Severe (CLcr ≥15-<30 mL/min), N 8
# [10] = human, plasma, po, 150 mg, single oral 150 mg migalastat HCl, non-Fabry subjects, renal function group Mild (N = 8)
# [11] = human, plasma, po, 150 mg, single oral 150 mg migalastat HCl, non-Fabry subjects, renal function group Moderate (N = 8)
# [12] = human, plasma, po, 150 mg, single oral 150 mg migalastat HCl, non-Fabry subjects, renal function group Normal (N = 8)
# [13] = human, plasma, po, 150 mg, single oral 150 mg migalastat HCl, non-Fabry subjects, renal function group Severe (N = 8)
# [14] = single oral 150 mg migalastat HCl, non-Fabry subjects, renal function group Mild (N = 8)
# [15] = single oral 150 mg migalastat HCl, non-Fabry subjects, renal function group Moderate (N = 8)
# [16] = single oral 150 mg migalastat HCl, non-Fabry subjects, renal function group Normal (N = 8)
compound,measurement,setting,value
"OC[C@H]1NC[C@H](O)[C@@H](O)[C@H]1O [migalastat, (2R,3S,4R,55)-2-(hydroxymethyl) piperdine-3,4,5-triol]",highest exposure of migalastat in a Fabry patient,[1],53035 ng·h/mL
same,"AUC0-t, Geometric mean",[2]; [6],14374 ng·h/mL
same,"AUC0-∞, Geometric mean (CV %)",[2]; [6],14520 (30.8) hr*ng/mL
same,"C96 h, Mean",[2]; [6],BLQ
same,Frel,[2]; [6],1.2
same,"t1/2, Mean",[2]; [6],7.7 h
same,"tmax, Median (min-max)",[2]; [6],2.5 (1.5-4.0) hr
same,"AUC0-t, Geometric mean",[2]; [7],22122 ng·h/mL
same,"AUC0-∞, Geometric mean (CV %)",[2]; [7],22455 (41.2) hr*ng/mL
same,Frel,[2]; [7],1.8
same,"AUC0-t, Geometric mean",[2]; [8],12299 ng·h/mL
same,"AUC0-∞, Geometric mean (CV %)",[2]; [8],12389 (24.8) hr*ng/mL
same,"C96 h, Mean",[2]; [8],BLQ
same,"t1/2, Mean",[2]; [8],6.4 h
same,"tmax, Median (min-max)",[2]; [8],2.5 (1.5-3.0) hr
same,"AUC0-t, Geometric mean",[2]; [9],53098 ng·h/mL
same,"AUC0-∞, Geometric mean (CV %)",[2]; [9],56174 (24.2) hr*ng/mL
same,"Cmax, Geometric mean (CV %)",[2]; [9],2078 (43.3) ng/mL
same,Frel,[2]; [9],4.5
same,AUC0-∞,"[2]; NCA SD Data, single 150 mg migalastat HCl, Moderate (≥30-≤35) group",36051 and 40653 and 19723
same,AUC0-∞,"[2]; NCA SD Data, single 150 mg migalastat HCl, Severe (<30) group",83312 and 54470 and 48890 and 62034 and 59538 and 65916 and 36227 and 49905
same,concentration at 48 h,"[2]; human, plasma, oral, 150 mg, 150 mg dose of migalastat hydrochloride, individuals with normal kidney function, level of quantification, read-out: C48h",< 5 ng/mL
same,concentration at 48 h,"[2]; human, plasma, oral, 150 mg, AT1001-015, Mild (CLcr ≥60-<90 mL/min), N 8, read-out: C48 h, Mean",9.34 ng/mL
same,concentration at 96 h,"[2]; human, plasma, oral, 150 mg, AT1001-015, Moderate (CLcr ≥30-<60 mL/min), N 8",16.7 ng/mL
same,concentration at 48 h,"[2]; human, plasma, oral, 150 mg, AT1001-015, Normal (CLcr ≥90 mL/min), N 8, read-out: C48 h, Mean",5.7 ng/mL
same,AUC(0-inf),"[2]; human, plasma, oral, 150 mg, NCA SD Data, single 150 mg migalastat HCl, Geometric Mean of the 11 subjects",47600 ng·h/mL
same,concentration at 96 h,"[2]; human, plasma, oral, 150 mg, AT1001-015, Severe (CLcr ≥15-<30 mL/min), N 8",105 ng/mL
same,tmax,"[2]; human, plasma, oral, 150 mg, AT1001-015, Severe (CLcr ≥15-<30 mL/min), N 8, read-out: tmax, Median (min-max)",4 h
same,AUC(0-inf),[2]; [10],14500 ng·h/mL
same,AUC(0-t),[2]; [10],14400 ng·h/mL
same,Cmax,[2]; [10],2190 ng/mL
same,AUC(0-inf),[2]; [11],22500 ng·h/mL
same,AUC(0-t),[2]; [11],22100 ng·h/mL
same,Cmax,[2]; [11],1870 ng/mL
same,AUC(0-inf),[2]; [12],12400 ng·h/mL
same,AUC(0-t),[2]; [12],12300 ng·h/mL
same,Cmax,[2]; [12],2100 ng/mL
same,AUC(0-inf),[2]; [13],56200 ng·h/mL
same,AUC(0-t),[2]; [13],53100 ng·h/mL
same,Plasma migalastat C48h levels compared with healthy control subjects,[2]; moderate (predominantly CrCL <50 ml/min) and severe renal impairment,elevated
same,Comparison to Example 1 Moderate Impairment (migalastat concentration),[2]; 3 Hrs Post,1868
same,Comparison to Example 1 Moderate Impairment (migalastat concentration),[2]; 24 Hrs Post,239
same,Comparison to Example 1 Moderate Impairment (migalastat concentration),[2]; 48 Hrs Post,64.5
same,Comparison to Example 1 Moderate Impairment (migalastat concentration),"[2]; Pre-dose (0 h), same value as 48 h",64.5
same,Comparison to Example 1 Severe Impairment (migalastat concentration),[2]; 2 h,1549 (59.3%)
same,Comparison to Example 1 Severe Impairment (migalastat concentration),[2]; 24 h,770 (26.5%)
same,Comparison to Example 1 Severe Impairment (migalastat concentration),[2]; 48 h,334 (38.2%)
same,Cmax compared to healthy control subjects,"[2]; single oral 150 mg migalastat HCl, across any of the renal impairment groups",not increased
same,Incidence of adverse events,"[2]; single oral 150 mg migalastat HCl, all renal function groups",comparable across all renal function groups
same,mean plasma migalastat AUC0-∞ increase compared to healthy control subjects,"[2]; single oral 150 mg migalastat HCl, mild renal impairment",1.2 fold
same,mean plasma migalastat AUC0-∞ increase compared to healthy control subjects,"[2]; single oral 150 mg migalastat HCl, moderate renal impairment",1.8 fold
same,CL/F,[2]; [14],10.3 L/h
same,t1/2,[2]; [14],7.66 h
same,tmax,[2]; [14],2.50 h
same,CL/F,[2]; [15],6.68 L/h
same,tmax,[2]; [15],3.00 h
same,CL/F,[2]; [16],12.1 L/h
same,t1/2,[2]; [16],6.42 h
same,tmax,[2]; [16],2.50 h
same,CL/F,"[2]; single oral 150 mg migalastat HCl, non-Fabry subjects, renal function group Severe (N = 8)",2.67 L/h
same,tmax compared to healthy control subjects,"[2]; single oral 150 mg migalastat HCl, severe group",slightly delayed
same,mean plasma migalastat AUC0-∞ increase compared to healthy control subjects,"[2]; single oral 150 mg migalastat HCl, severe renal impairment",4.5 fold
same,Comparison to FACETS PPK (migalastat concentration),"[3]; 3 Hrs Post, (coefficient of variation)",1180 (31.0%)
same,Comparison to FACETS PPK (migalastat concentration),[3]; 48 Hrs Post,8.70
same,Comparison to FACETS PPK (migalastat concentration),[3]; 48 h,8.70
same,Comparison to FACETS PPK (migalastat concentration),[3]; Pre-dose (0 h),8.70
same,concentration at 48 h,"[3]; human, plasma, 150 mg, FACETS population PK, 150 mg QOD, read-out: PPK Cmin",8.7 ng/mL
same,AUC(0-t),"[3]; human, plasma, 150 mg, 011 PPK (CLcr ≥30-≥90 mL/min), N 62, QOD regimen, read-out: AUC0-t, Geometric mean",9030 ng·h/mL
same,concentration at 48 h,"[3]; human, plasma, 150 mg, 011 PPK (CLcr ≥30-≥90 mL/min), N 62, QOD regimen, read-out: C48 h, Mean",7.54 ng/mL
same,Cmax,"[3]; human, plasma, 150 mg, 011 PPK (CLcr ≥30-≥90 mL/min), N 62, QOD regimen, read-out: Cmax, Geometric mean (CV %)",1180 ng/mL
same,half-life,"[3]; human, plasma, 150 mg, 011 PPK (CLcr ≥30-≥90 mL/min), N 62, QOD regimen, read-out: t1/2, Mean (converted)",1240 min
same,AUC,"[3]; human, plasma, 150 mg, reference AUC of the 011 PK model, the same value printed on every subject line",9520 ng·h/mL
same,RacPPK,[4]; Geometric Mean of the 11 subjects,4.96
same,RacPPK,"[4]; individual subjects, Moderate (≥30-≤35) group",3.75 and 4.36 and 2.06
same,RacPPK,"[4]; individual subjects, Severe (<30) group",8.81 and 5.59 and 5.02 and 6.74 and 6.23 and 6.91 and 3.62 and 5.17
same,route of excretion,[5],primarily excreted unchanged in urine
